Tests used:
S. thermophilus CS1980 = assay: Lactose hydrolysis in POM buffer by permeabilized S. thermophilus CS1980 whole-cell catalyst; format: cell-based, Streptococcus thermophilus; conditions: for stability of the whole-cell catalyst: permeabilized 10 minutes at 28° C. (45% (v/v) ethanol or 2.5 μg/ml nisin), hydrolysis 50° C.
Description: S. thermophilus CS1980 was grown in 500-ml Erlenmeyer flasks containing 200 ml of medium at 37° C. for 16 h without agitation. As inoculum, 2 ml of a 24 hour, outgrown culture was used. Cells were collected by centrifugation at 10,000 g for 10 min at 4° C., washed once with sterile POM buffer (50 mM K2HPO4/KH2PO4, 1 mM MgCl2, pH 7.4) and finally re-suspended in POM buffer to an optical density (600 nm) of 0.33, corresponding to approximately 100 mg/l dry cell weight. The cell suspension was kept on ice until use. For permeabilization, cell suspensions were dispensed into sterile tubes (1 ml per tube) and centrifuged in a microcentrifuge at top speed for 5 min at 4° C.
Samples were withdrawn at different time points, and conversion of lactose (formation of glucose and galactose) was determined by HPLC analysis.
The concentrations of sugars (carbohydrate monomers and dimers) were determined using an Ultimate 3000 high-pressure liquid chromatography system (Dionex, Sunnyvale, CA) equipped with an Aminex HPX-87H column (Bio-Rad, Hercules, CA) and a Shodex RI-101 detector (Showa Denko KK, Tokyo, Japan). The column oven temperature was set to 30° C., and the mobile phase consisted of 5 mM H2SO4 with a flowrate of 0.5 ml/min.
Hydrolysis took place at 50° C.
Hydrolysis of lactose in POM buffer (50 g/l lactose) at 50° C. was carried out at a cell concentration of approximately 100 mg/l.
Hydrolysis of lactose (50 g/1) was carried out in POM buffer at 50° C.

S. thermophilus = conditions: Somkuti et al., 1998; cited from earlier work
[1] = tested on: S. thermophilus strains from starter culture ST057; assay: Lactose hydrolysis in POM buffer by nisin-permeabilized S. thermophilus strains from starter culture ST057; format: cell-based, Streptococcus thermophilus
Description: Streptococcus thermophilus (S. thermophilus) strain CS1980 was isolated from a Danish yoghurt (same as used in example 1). Additional S. thermophilus strains were isolated from starter cultures kindly provided by Sacco Srl. Italy (ST057, ST022).
Hydrolysis was performed at 50° C.

S. thermophilus ST057-1 = assay: Hydrolysis of lactose in milk by nisin-permeabilized S. thermophilus ST057-1; format: cell-based, Streptococcus thermophilus
Description: Nisin-treated S. thermophilus ST057-1 was applied in hydrolysis of lactose in milk, at cell concentration of approximately 100 mg/l or 1 g/l. […] The starting concentration of lactose in the milk used was 52 g/l. Hydrolysis took place at 50° C.
Hydrolysis of lactose in milk (52 g/l lactose) using nisin-treated cells was carried out at a cell concentration of approximately 1 g/l. Hydrolysis took place at 50° C.

[2] = tested on: L. lactis strain MG1363 ΔldhB ΔldhX Δpta ΔadhE ΔbutBA ΔaldB (RD04); assay: Alpha-acetolactate synthase activity of nisin-permeabilized L. lactis RD04 (pyruvate to alpha-acetolactate, HPLC); format: cell-based, Lactococcus lactis; conditions: 100 μg/ml nisin, 15 min 37° C.; 200 mM sodium pyruvate
Description: A modified L. lactis strain MG1363 lacking alpha-acetolactate decarboxylase activities was used in the present experiment. More specifically, the strain RD04 was L. lactis strain MG1363 ΔldhB ΔldhX Δpta ΔadhE ΔbutBA ΔaldB, while harboring an expression vector for overexpressing native alpha-acetolactate synthase (Als).
Alpha-acetolactate synthase activity was determined by investigating the conversion rate of pyruvate to alpha-acetolactate, using HPLC measurements of alpha-acetolactate formation.

CCO [ethanol]
stability of the whole-cell catalyst (S. thermophilus CS1980): compromised the stability of the whole-cell catalyst
permeabilizing agent effect on measurable beta-galactosidase activity (S. thermophilus): efficient as a permeabilizing agent

nisin A
lactose hydrolyzed (S. thermophilus CS1980; 2.5 μg/ml nisin 10 min, 100 mg/l cells, 50 g/l lactose in POM buffer, hydrolysis at 50° C., within 24 hours): 95%
lactose conversion compared to control and ethanol-permeabilized cells (S. thermophilus CS1980; 2.5 μg/ml nisin, 10 minutes 28° C., 50 g/l lactose POM buffer, 50° C., 100 mg/l cells): perform better than the control as well as the ethanol-permeabilized cells
effect of prolonged nisin treatment (S. thermophilus CS1980; 30 minutes vs 10 minutes permeabilization): does not give better results
efficiency of permeabilization at different permeabilization temperatures (S. thermophilus CS1980; permeabilization at 28° C. and 37° C., 2.5 μg/ml nisin 10 min): equally efficient
cell stability after permeabilization (S. thermophilus CS1980; permeabilization at 55° C., 2.5 μg/ml nisin): seemed to be compromised
efficiency of permeabilization at different permeabilization temperatures (S. thermophilus CS1980; permeabilization temperatures 28-50° C., 2.5 μg/ml nisin): equally efficient
stability of the whole-cell catalyst (S. thermophilus CS1980): higher stability
time to reach 80% hydrolysis ([1]; POM buffer, 100 mg/l whole-cell catalyst, 50° C.): ≤ 4 h
conversion of the lactose ([1]; two strains from starter culture ST057, 2.5 μg/ml nisin 10 min 28° C., hydrolysis 50° C., in less than half of the time of the other strains): > 90%
time to reach 80% hydrolysis (S. thermophilus ST057-1; milk (52 g/l lactose), 100 mg/l whole-cell catalyst, 50° C.): more than 12 hours
conversion rate on increasing the whole-cell catalyst concentration (S. thermophilus ST057-1; milk, 1 g/l vs 100 mg/l cells, 50° C.): significantly increased
lactose conversion in milk at different permeabilization temperature (S. thermophilus ST057-1; permeabilization 28° C. vs 37° C., 1 g/l cells, hydrolysis 50° C.): performed equally well
conversion of pyruvate to alpha-acetolactate compared to non-permeabilized cells [2]: performed much better than non-permeabilized cells
